Series [1] can be described thus: Quantification of singlet oxygen with Singlet Oxygen Sensor Green (SOSG). The conditions noted are these: RPMI 1640 medium with 10% foetal bovine serum, IR laser irradiation. How it is done:
Fig. 4 Nonspecific aggregation of peptidesomes under physiological conditions. (a) PDT effect in SCC7 cells. (b) Quantification of singlet oxygen with Singlet Oxygen Sensor Green (SOSG). The samples were dissolved in RPMI 1640 medium containing 10% foetal bovine serum, and IR laser irradiation was performed for the indicated times. (c) AFM image of the peptidesome←Pa in RPMI 1640 medium (without the serum). R6:RGD2 = 1:9.

In series [2] the test system is SCC7 cells. Description: In vitro cellular uptake, CLSM and flow cytometry. The class given is cell-based. The conditions noted are these: 4 h treatment, flow cytometry of Pa fluorescence. How it is done:
Cellular uptake of materials in SCC7 cells was analyzed based on the intrinsic fluorescence of Pa via CLSM (LSM700, Carl Zeiss, Germany) and flow cytometry (FACS Canto II, BD Biosciences, Bedford, MA, USA). SCC7 cells were seeded in 24-well plates at a density of 5 × 10^4 and incubated overnight. Then, 200 μL of the sample in an appropriate solution was added to 800 μL of complete medium for each well. The cells were treated with the samples for 4 h followed by the removal of the sample solution and the washing step. For cell imaging, nuclei were also stained with Hoechst 33,342.
In general terms: Flow cytometry measures light scatter and fluorescence of single cells or particles in a stream.

For series [3] the following is noted: stated without reference; cited from earlier work. The text has this: As stated in Lipinski's rule of five, most small molecule drugs are lipophilic overall. Pheophorbide a (Pa), a small molecule drug used in this study, is also hydrophobic with a low water solubility of approximately 0.014 g/L. Pa is a porphyrin derivative of plant chlorophyll and has been used as a photosensitizer for photodynamic therapy (PDT). For noncovalent drug loading in R6 peptidesome, R6 and Pa were mixed in DW, and the solution was sonicated vigorously. After this drug loading process, the R6 peptidesomes underwent a morphological transformation into elongated supe ...

Series [4] deals with SCC7 cells. Kind of series: Photodynamic killing of cancer cells (PDT effect), MTT assay. The class given is cell-based. The conditions noted are these: 24 h treatment, IR laser 671 nm at 1.59 J/cm^2, peptidesome fabricated in DW. How it is done: Having controlled the nano- and biostructural properties of the peptidesomes in terms of intracellular delivery efficiency and cytotoxicity, we then evaluated their tumoricidal photodynamic effects in tissue culture. Squamous cell carcinoma 7 (SCC7) cells were treated with free Pa or the peptidesome←Pa for 24 h, followed by infrared (IR) laser irradiation (671 nm) at 1.59 J/cm^2. Cytotoxicity as a measure of the photodynamic killing of cancer cells was determined using the MTT assay. […] To probe the reason behind this negative result, the amount of single oxygen (SO) generated was quantified after the incubation of both groups in cell culture medium (with serum). The amount of SO was far higher for free Pa than for peptidesome←Pa, which accounts for the results of the PDT assay (Fig. 4b). It has been shown that the aggregation of porphyrin derivatives reduced SO generation and negatively affected PDT efficacy. […] The aggregation would have been more severe in cell culture medium containing serum. Taken together, the nonspecific aggregation of the peptidesome←Pa is likely responsible for the reduced SO generation and the lack of PDT effect. The morphology of peptidesome before and after NIR irradiation was also monitored by AFM (Fig. S12). […]

The next series relates to SCC7 tumor-bearing mice. Kind of series: In vivo antitumor (photodynamic) efficacy. The settings on record: end of therapy (14 days). Also on record: species or system mouse. How it is done: The SCC7 tumor-bearing mouse models were prepared similarly to the in vivo imaging experiment, and each sample was prepared in the same way as in the in vivo IVIS imaging experiments. The samples were intravenously injected into the mice when the tumor volume reached approximately 50 mm^3. Three hours postinjection of the samples, NIR laser (671 nm) irradiation was administered to the tumor site with a power of 0.53 W/cm^2 for 15 min, and the same sample injection and NIR irradiation procedures were repeated at the next day. The tumor volume and body weight were recorded every two days. At the end of the therapy, major organs and tumors were dissected for histological analysis. They were fixed, sliced, stained with haematoxylin and eosin (H&E), and observed with a microscope (AxioImager A1, Zeiss, Germany).

The next series concerns cells. Description: Cytotoxicity of peptidesomes. Format: cell-based. The settings on record: single-component peptidesomes (Fig. 3a).

Take `C=Cc1c(C)c2cc3nc(c4c5[nH]c(cc6nc(cc1[nH]2)C(C)=C6CC)c(C)c5C(=O)[C@@H]4C(=O)OC)[C@@H](CCC(=O)O)[C@@H]3C` [Pa, Pheophorbide a]: the “amount of singlet oxygen (SO) generated, free Pa versus peptidesome←Pa” value in series [1] was “far higher”. Moreover, in the series on SCC7 cells [2], the “cell internalization efficiency relative to peptidesome←Pa” value is given as 5 fold. Moreover, the water solubility entry in series [3] is listed as “approximately 0.014 g/L”. For the same molecule, the “PDT effect (cytotoxicity, MTT)” value with SCC7 cells [4] is reported as “strong dose-dependent PDT effect”. Further, the “excised tumor weight, times larger than peptidesome←Pa (G&G)-treated group” value in the series with SCC7 tumor-bearing mice is “approximately 3 times”. The “weight of the excised tumor” value in the series with SCC7 tumor-bearing mice (n = 4) is on record as 1222 mg.

For the molecule `CCCCCCCCCCCC(=O)N[C@H]1CCCCNC(=O)[C@H](Cc2c[nH]c3ccccc23)NC(=O)CCC(=O)NCCOCCOCCNC(=O)[C@H](CCCNC(=N)N)NC(=O)[C@H](CCCNC(=N)N)NC(=O)[C@H](CCCNC(=N)N)NC(=O)[C@H](CCCNC(=N)N)NC(=O)[C@H](CCCNC(=N)N)NC(=O)[C@H](CCCNC(=N)N)NC(=O)CCC(=O)NCCOCCOCCNC(=O)[C@H](Cc2c[nH]c3ccccc23)NC1=O` [R6], in the series on cells, the Cytotoxicity of peptidesomes entry was “highly toxic”.

Source of the values: article PMC9254122, “Structural control of self-assembled peptide nanostructures to develop peptide vesicles for photodynamic therapy of cancer” (Materials Today Bio, 2022).
